Results on 3 compounds are retold here after publication PMC8490825 (Frontiers in Molecular Biosciences, 2021).

For one assay, the target named is hNaV1.1 (Homo sapiens, UniProt P35498). Kind of assay: cell-based. Type of assay: cell-based.
In the next assay the target is hNaV1.7 (Homo sapiens, UniProt Q15858). Put plainly: cell-based. Type of assay: cell-based.

Each structure is given as a SMILES string. Where a SMILES comes first, the peptide text is derived from it. Bridges are numbered along the chain shown (N, C = ends). Some results are limits rather than exact numbers.

A word on the IC50: it is the point on the concentration scale where inhibition reaches its midpoint.

Sequence of hNaV1.7 (Q15858 whole entry, looked up): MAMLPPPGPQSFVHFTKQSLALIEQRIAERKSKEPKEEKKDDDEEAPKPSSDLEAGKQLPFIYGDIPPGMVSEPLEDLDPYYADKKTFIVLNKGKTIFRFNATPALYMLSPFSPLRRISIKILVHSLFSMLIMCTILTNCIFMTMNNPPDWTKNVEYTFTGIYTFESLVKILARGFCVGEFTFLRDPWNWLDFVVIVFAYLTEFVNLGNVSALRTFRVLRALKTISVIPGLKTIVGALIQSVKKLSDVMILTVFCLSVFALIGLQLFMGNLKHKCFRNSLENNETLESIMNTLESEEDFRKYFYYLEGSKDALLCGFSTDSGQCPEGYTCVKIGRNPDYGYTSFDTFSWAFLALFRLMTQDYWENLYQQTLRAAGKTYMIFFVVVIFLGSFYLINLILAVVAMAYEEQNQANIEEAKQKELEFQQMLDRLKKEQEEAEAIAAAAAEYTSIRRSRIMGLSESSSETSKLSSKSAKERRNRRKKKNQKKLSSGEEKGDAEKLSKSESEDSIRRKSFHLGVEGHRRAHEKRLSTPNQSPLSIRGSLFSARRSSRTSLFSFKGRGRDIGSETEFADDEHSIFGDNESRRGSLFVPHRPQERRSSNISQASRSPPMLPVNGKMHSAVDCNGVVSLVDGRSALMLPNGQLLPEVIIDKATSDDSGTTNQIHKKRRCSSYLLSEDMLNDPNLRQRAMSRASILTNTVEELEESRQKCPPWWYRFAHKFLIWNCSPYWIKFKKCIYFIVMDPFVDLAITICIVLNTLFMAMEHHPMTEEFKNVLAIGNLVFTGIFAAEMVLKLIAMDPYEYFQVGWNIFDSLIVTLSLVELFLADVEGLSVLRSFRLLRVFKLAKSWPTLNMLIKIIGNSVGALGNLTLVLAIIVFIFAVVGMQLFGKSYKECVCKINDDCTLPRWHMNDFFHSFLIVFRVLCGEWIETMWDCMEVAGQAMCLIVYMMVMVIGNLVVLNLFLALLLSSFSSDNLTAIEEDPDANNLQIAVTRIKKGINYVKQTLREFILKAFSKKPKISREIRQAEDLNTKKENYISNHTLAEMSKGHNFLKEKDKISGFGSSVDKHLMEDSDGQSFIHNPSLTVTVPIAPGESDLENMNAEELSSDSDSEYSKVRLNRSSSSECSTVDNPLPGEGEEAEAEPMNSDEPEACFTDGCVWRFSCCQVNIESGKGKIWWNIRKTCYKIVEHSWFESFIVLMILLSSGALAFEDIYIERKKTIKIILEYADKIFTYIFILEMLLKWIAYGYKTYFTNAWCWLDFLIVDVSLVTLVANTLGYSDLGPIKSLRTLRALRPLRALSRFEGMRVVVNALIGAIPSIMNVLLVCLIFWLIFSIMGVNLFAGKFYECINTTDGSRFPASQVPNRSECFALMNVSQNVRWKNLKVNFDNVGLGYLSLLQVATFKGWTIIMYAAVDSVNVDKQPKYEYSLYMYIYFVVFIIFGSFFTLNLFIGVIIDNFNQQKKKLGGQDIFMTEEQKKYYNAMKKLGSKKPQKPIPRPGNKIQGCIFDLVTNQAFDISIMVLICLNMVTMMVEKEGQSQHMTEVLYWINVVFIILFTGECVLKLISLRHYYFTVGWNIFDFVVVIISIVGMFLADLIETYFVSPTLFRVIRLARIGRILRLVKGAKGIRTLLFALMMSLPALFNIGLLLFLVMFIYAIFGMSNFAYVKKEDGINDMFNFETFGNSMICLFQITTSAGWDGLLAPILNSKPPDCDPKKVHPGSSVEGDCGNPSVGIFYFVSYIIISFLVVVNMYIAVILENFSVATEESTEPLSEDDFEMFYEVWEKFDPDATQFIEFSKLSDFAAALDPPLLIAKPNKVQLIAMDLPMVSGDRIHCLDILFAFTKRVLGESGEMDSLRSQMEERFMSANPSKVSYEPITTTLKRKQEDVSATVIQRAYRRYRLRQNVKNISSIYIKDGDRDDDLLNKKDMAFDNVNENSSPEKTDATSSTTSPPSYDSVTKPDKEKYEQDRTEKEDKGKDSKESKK

Turning to `CSCC[C@@H]1NC(=O)CNC(=O)[C@H](CC(C)C)NC(=O)[C@@H](NC(=O)[C@H](CC(=O)O)NC(=O)[C@H](CC(=O)O)NC(=O)CN)CSSC[C@@H]2NC(=O)[C@@H]3CSSC[C@@H](C(=O)N[C@@H](CCCCN)C(=O)N[C@@H](Cc4ccc(O)cc4)C(=O)N[C@@H](CCC(N)=O)C(=O)N[C@@H](CC(C)C)C(=O)N[C@@H](Cc4c[nH]c5ccccc45)C(=O)O)NC(=O)[C@H](Cc4c[nH]c5ccccc45)NC(=O)[C@H](CCC(N)=O)NC(=O)[C@H](CC(=O)O)NC(=O)[C@H](CCCCN)NC(=O)[C@H](CCCNC(=N)N)NC(=O)[C@H](C)NC(=O)[C@H](CSSC[C@H](NC(=O)[C@H](CO)NC(=O)[C@H](CO)NC(=O)[C@H](Cc4ccccc4)NC1=O)C(=O)N[C@@H](CC(=O)O)C(=O)N1CCC[C@H]1C(=O)N[C@@H](CC(N)=O)C(=O)N[C@@H](CC(N)=O)C(=O)N[C@@H](CC(=O)O)C(=O)N[C@@H](CCCCN)C(=O)N3)NC(=O)[C@H](CCCCN)NC(=O)[C@H](CCCNC(=N)N)NC(=O)[C@H](CC(N)=O)NC(=O)[C@@H]1CCCN1C2=O` [Peptide S24A] (H-GDDCLGMFSSCDPNNDKCCPNRKCARKDQWCKYQLW-OH; disulfide 4-19, 11-24, 18-31), the values for the IC50 on hNaV1.1 and at hNaV1.7 were above 1000 nM and 920 nM, respectively.

`CSCC[C@@H]1NC(=O)CNC(=O)[C@H](CC(C)C)NC(=O)[C@@H](NC(=O)[C@H](CC(=O)O)NC(=O)[C@H](CC(=O)O)NC(=O)CN)CSSC[C@@H]2NC(=O)[C@@H]3CSSC[C@@H](C(=O)N[C@@H](CCCCN)C(=O)N[C@@H](Cc4ccc(O)cc4)C(=O)N[C@@H](CCC(N)=O)C(=O)N[C@@H](CC(C)C)C(=O)N[C@@H](Cc4c[nH]c5ccccc45)C(=O)O)NC(=O)[C@H](Cc4c[nH]c5ccccc45)NC(=O)[C@H](CCC(N)=O)NC(=O)[C@H](C)NC(=O)[C@H](CCCCN)NC(=O)[C@H](CCCNC(=N)N)NC(=O)[C@H](CO)NC(=O)[C@H](CSSC[C@H](NC(=O)[C@H](CO)NC(=O)[C@H](CO)NC(=O)[C@H](Cc4ccccc4)NC1=O)C(=O)N[C@@H](CC(=O)O)C(=O)N1CCC[C@H]1C(=O)N[C@@H](CC(N)=O)C(=O)N[C@@H](CC(N)=O)C(=O)N[C@@H](CC(=O)O)C(=O)N[C@@H](CCCCN)C(=O)N3)NC(=O)[C@H](CCCCN)NC(=O)[C@H](CCCNC(=N)N)NC(=O)[C@H](CC(N)=O)NC(=O)[C@@H]1CCCN1C2=O` [Peptide D27A] (H-GDDCLGMFSSCDPNNDKCCPNRKCSRKAQWCKYQLW-OH; disulfide 4-19, 11-24, 18-31): the concentration for half-maximal inhibition (IC50) against hNaV1.1 is 287 nM; at hNaV1.7, 353 nM.

For the compound `CSCC[C@@H]1NC(=O)CNC(=O)[C@H](CC(C)C)NC(=O)[C@@H](NC(=O)[C@H](CC(=O)O)NC(=O)[C@H](CC(=O)O)NC(=O)CN)CSSC[C@@H]2NC(=O)[C@@H]3CSSC[C@@H](C(=O)N[C@@H](CCCCN)C(=O)N[C@@H](Cc4ccc(O)cc4)C(=O)N[C@@H](C)C(=O)N[C@@H](CC(C)C)C(=O)N[C@@H](Cc4c[nH]c5ccccc45)C(=O)O)NC(=O)[C@H](Cc4c[nH]c5ccccc45)NC(=O)[C@H](CCC(N)=O)NC(=O)[C@H](CC(=O)O)NC(=O)[C@H](CCCCN)NC(=O)[C@H](CCCNC(=N)N)NC(=O)[C@H](CO)NC(=O)[C@H](CSSC[C@H](NC(=O)[C@H](CO)NC(=O)[C@H](CO)NC(=O)[C@H](Cc4ccccc4)NC1=O)C(=O)N[C@@H](CC(=O)O)C(=O)N1CCC[C@H]1C(=O)N[C@@H](CC(N)=O)C(=O)N[C@@H](CC(N)=O)C(=O)N[C@@H](CC(=O)O)C(=O)N[C@@H](CCCCN)C(=O)N3)NC(=O)[C@H](CCCCN)NC(=O)[C@H](CCCNC(=N)N)NC(=O)[C@H](CC(N)=O)NC(=O)[C@@H]1CCCN1C2=O` [Peptide Q33A] (H-GDDCLGMFSSCDPNNDKCCPNRKCSRKDQWCKYALW-OH; disulfide 4-19, 11-24, 18-31), the IC50 on hNaV1.1 turned out to be 163 nM; against hNaV1.7, 99 nM.
